Assay [1] has as its target T1, human NK1-receptor (Homo sapiens, UniProt P25103). Briefly: Binding potency of the test substances to NK1-receptors in vitro ([3H]-Substance P displacement). Conditions: human NK1-receptor in CHO cell membranes, average of at least three measurements, read-out: pKi, binding potency to NK1-receptors (converted).
Assay [2] has as its target T2, NK3-receptor (Meriones unguiculatus, UniProt Q2YHR0).
T2 construct: from tissue; host or cells: whole animal (male gerbils), in vivo
T2 sequence (Q2YHR0 1-454): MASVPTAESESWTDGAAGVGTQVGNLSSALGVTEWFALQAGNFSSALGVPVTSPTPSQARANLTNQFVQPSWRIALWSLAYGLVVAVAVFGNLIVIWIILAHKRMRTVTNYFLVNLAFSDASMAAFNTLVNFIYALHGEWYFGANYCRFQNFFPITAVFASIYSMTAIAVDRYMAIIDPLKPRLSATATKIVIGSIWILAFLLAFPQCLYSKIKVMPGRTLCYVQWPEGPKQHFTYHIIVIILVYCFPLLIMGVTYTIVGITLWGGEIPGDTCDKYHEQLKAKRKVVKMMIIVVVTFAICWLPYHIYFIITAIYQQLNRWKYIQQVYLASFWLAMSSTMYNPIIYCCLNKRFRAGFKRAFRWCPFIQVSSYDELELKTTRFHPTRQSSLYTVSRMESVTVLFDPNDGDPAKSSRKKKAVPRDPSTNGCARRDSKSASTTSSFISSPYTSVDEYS
The experiment in a line: NK3-receptor-antagonistic effectiveness in vivo, senktide-induced hypothermia in gerbils. The note with it: gerbil; for Inhibition of temperature increase at t = 60 minutes after oral (po) administration: senktide 0.03 mg/kg sc; for Inhibition of temperature increase at a dose of 10 mg/kg after parenteral (ip) administration: 10 mg/kg ip. The procedure:
8. Determination of the NK3-Receptor-Antagonistic Effectiveness of the Test Substances In Vivo (Reduction of Body Temperature in Gerbils with Senktide-Induced Hypothermia)
NK3 agonists reduce the body temperature of gerbils. The senktide-induced hypothermia can be antagonized by administering compounds with NK3-antagonistic properties. Measuring the level of hypothermia is indicative for the degree of activity of the test compounds. The own effect of the tested compound is assessed in the same experiment to exclude an additional hyperthermic effect.
Male gerbils with a body weight between 60 to 90 g are housed in groups under normal day-night rhythm and under constant environmental temperature (room temperature: 21±2° C.) with a constant relative humidity level (50±10%). Water and food are freely available. […] Antagonists: see example compounds in table X.
The animals are weighted and marked 60 minutes prior to the agonist administration. For oral (po) testings, the test compounds are administered at t=−60 minutes. For parenteral or subcutaneous (i por sc, resp.) administration, at t=−30 minutes. […] At t=15 minutes the temperature is measured orally, and registered with a 0.1° C. accuracy after a 10 second reading. This way, animals are measured every 60 sec.

The target of assay [3] is T1, human NK1-receptor. Briefly: Functional cellular test, Ca2+ measurements using FLIPR for NK1 activity. It counts as cell-based. Also on record: expressed in transfected cells; host or cells: CHO fibroblast cells. The note with it: for pA2 data for NK1: CHO cells, human NK1, FLIPR Ca2+, agonist substance P 10^-8 M. The text has this: The NK receptor is coupled to Gq.
All steps were done under sterile conditions.

Assay [4] deals with T3, NK3-receptor (Cavia porcellus, UniProt P30098).
T3 construct: from tissue; host or cells: whole animal (Dunkin Hartley guinea pigs), in vivo
T3 sequence (P30098 1-440): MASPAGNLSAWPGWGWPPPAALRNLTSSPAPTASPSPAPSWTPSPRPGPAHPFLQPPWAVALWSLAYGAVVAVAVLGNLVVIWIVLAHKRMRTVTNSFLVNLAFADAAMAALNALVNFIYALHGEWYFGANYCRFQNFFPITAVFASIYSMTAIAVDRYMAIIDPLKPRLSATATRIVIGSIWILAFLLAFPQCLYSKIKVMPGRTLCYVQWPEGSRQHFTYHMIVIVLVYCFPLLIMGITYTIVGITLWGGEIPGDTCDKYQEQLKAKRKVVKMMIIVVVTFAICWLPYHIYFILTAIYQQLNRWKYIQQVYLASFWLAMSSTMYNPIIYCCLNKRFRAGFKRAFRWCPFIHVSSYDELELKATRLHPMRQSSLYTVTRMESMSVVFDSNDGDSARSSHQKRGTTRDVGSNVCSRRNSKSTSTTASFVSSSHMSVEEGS
Briefly: Functional NK3-receptor antagonism in ileal preparations isolated from guinea pigs. The note with it: guinea pig ileum, [MePhe7]-neurokinin B-induced contraction. The procedure: 7. Determination of Functional NK3-Receptor Antagonism of Test Compounds in Tissue Isolated from Guinea Pigs.
The NK3-antagonistic action of test compounds was tested in ileal preparations isolated from guinea pigs. The preparations were kept in an oxygenated nutrient solution kept at 37° C. For measuring contraction of the longitudinal muscle of the ileum, the preparations were fixed to a hook and connected to force displacement transducers. Contractions were recorded on a pen recorder.
The NK3-receptors were stimulated with the NK3-receptor agonist [MePhe^7]-neurokinin B, causing a contraction of the muscle. Before (predrug) and after the administration of the test compound such contractions were measured and quantified in percent of the predrug contraction. 2-3 concentrations of the test compound were applied showing the inhibition of the receptor stimulation concentration dependently. […] The pIC50 value indicates the inhibitory potency of the test compounds to the NK3-receptor.

The target in another assay is T4, NK1-receptor (Cavia porcellus, UniProt P30547).
T4 construct: from tissue; host or cells: whole animal (Pirbright-White guinea pigs), in vivo
T4 sequence (P30547 whole entry): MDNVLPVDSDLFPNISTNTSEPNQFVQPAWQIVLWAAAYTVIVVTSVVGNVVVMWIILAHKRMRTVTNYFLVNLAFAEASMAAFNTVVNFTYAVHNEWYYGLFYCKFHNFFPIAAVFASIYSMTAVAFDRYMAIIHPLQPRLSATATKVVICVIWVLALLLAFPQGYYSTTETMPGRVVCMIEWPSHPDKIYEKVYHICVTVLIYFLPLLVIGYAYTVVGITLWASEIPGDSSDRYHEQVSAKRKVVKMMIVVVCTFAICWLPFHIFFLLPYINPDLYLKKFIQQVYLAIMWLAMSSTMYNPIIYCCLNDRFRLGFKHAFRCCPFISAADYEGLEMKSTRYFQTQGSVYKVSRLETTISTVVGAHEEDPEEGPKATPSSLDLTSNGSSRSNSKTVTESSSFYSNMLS
Briefly: Functional NK1-receptor antagonism in aortic ring preparations isolated from guinea pigs. Conditions: Substance P-induced relaxation. The procedure:
5. Determination of Functional NK1-Receptor Antagonism of Test Compounds in Tissue Isolated from Guinea Pigs.
The NK1-antagonistic action of test compounds was tested in aortic ring preparations isolated from guinea pigs. The preparations were kept in an oxygenated nutrient solution kept at 37° C. For measuring contraction of the circular vascular muscle, the preparations were fixed to a hook and connected to force displacement transducers. Contractions/relaxations were recorded on a pen recorder. The preparations were given a medium tonus by addition of phenylephrine.
Before (predrug) and after the administration of the test compound such relaxations were measured and quantified in percent of the predrug relaxation. 2-3 concentrations of the test compound were applied showing the inhibition of the receptor stimulation concentration dependently. The concentration of half-maximal inhibition (IC50) and its negative logarithm pIC50=−log(IC50) was calculated. The pIC50 value indicates the inhibitory potency of the test compounds to the NK1-receptor.

Setting [5] is: t = 30 minutes after administration.

Molecules are shown by their SMILES.

T1 sequence (P25103 whole entry): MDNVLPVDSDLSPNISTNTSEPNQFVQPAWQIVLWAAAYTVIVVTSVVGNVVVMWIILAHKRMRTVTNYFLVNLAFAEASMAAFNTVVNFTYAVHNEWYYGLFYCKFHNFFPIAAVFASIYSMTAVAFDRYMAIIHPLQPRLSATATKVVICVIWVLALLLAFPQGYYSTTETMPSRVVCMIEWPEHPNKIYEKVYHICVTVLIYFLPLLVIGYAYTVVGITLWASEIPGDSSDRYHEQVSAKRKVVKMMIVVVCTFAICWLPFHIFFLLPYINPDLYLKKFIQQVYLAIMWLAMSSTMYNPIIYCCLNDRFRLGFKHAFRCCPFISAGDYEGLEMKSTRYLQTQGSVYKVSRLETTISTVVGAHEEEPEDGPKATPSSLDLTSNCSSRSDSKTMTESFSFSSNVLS

Consider `CN(C)C(=O)C1(N2CCCCC2)CCN(CC[C@H](CN(C)C(=O)c2ccccc2)c2ccc(Cl)c(Cl)c2)CC1` [compound 1], for which the Ki on human NK1-receptor [1] is 79.4 nM. Besides, the “Inhibition of temperature increase at t = 60 minutes after oral (po) administration” value on NK3-receptor [2] (Dose: 10 mg/kg po) stood at 37%; on NK3-receptor [2] (Dose: 30 mg/kg po), 54%. Also, the Kb at human NK1-receptor [3] (read-out: pA2 data for NK1 (converted)) is 7.94 nM.
Turning to `CN(C)C(=O)C1(N2CCCCC2)CCN(CC[C@H](CN(C)C(=O)C2CCCCC2)c2ccc(Cl)c(Cl)c2)CC1` [compound 3], the “pA2, functional NK3-antagonism on isolated guinea pig tissue” value on NK3-receptor [4] amounted to 8.5.
Turning to `CN(C)C(=O)C1(N2CCCCC2)CCN(CC[C@H](CN(C)C(=O)c2ccc(F)cc2)c2ccc(Cl)c(Cl)c2)CC1` [compound 4], the “pA2, functional NK3-antagonism on isolated guinea pig tissue” value on NK3-receptor [4] was 8.0. Also, the figures for the “Inhibition of temperature increase at a dose of 10 mg/kg after parenteral (ip) administration” value on NK3-receptor [2] (t = 15 minutes after administration) and at NK3-receptor [2] (setting [5]) were 54% and 68%, respectively.
Consider `CN(C)C(=O)C1(N2CCCCC2)CCN(CC[C@H](CN(C)C(=O)c2ccc(O)cc2)c2ccc(Cl)c(Cl)c2)CC1` [compound 6, 1′-{(3S)-3-(3,4-dichlorophenyl)-4-[(4-hydroxybenzoyl)-(methyl)amino]butyl}-N,N-dimethyl-1,4′-bipiperidine-4′-carboxamide], for which, on NK3-receptor [2] (setting [5]), the “Inhibition of temperature increase at a dose of 10 mg/kg after parenteral (ip) administration” value amounted to 75%.
As for `CN(C)C(=O)C1(N2CCCCC2)CCN(CC[C@H](CN(C)C(=O)c2cc(C#N)c3ccccc3c2)c2ccc(Cl)c(Cl)c2)CC1` [compound 11], the “pIC50, functional NK1-antagonism on isolated guinea pig tissue” value on NK1-receptor is recorded as 8.26. In addition, at human NK1-receptor [3], the “pA2 data for NK1” value worked out at 7.9.
As to `CN(C)C(=O)C1(N2CCCCC2)CCN(CC[C@H](CN(C)C(=O)c2ccc(F)cc2F)c2ccc(Cl)c(Cl)c2)CC1` [compound 13], the “pA2 data for NK1” value at human NK1-receptor [3] worked out at 7.5.
Same read-out and setting: the value for `CN(C)C(=O)C1(N2CCCCC2)CCN(CC[C@H](CN(C)C(=O)c2ccc(F)c(F)c2)c2ccc(Cl)c(Cl)c2)CC1` [compound 14] was 7.3; that for `CN(C)C(=O)C1(N2CCCCC2)CCN(CC[C@H](CN(C)C(=O)c2cc(F)ccc2F)c2ccc(Cl)c(Cl)c2)CC1` [compound 15] was 7.2.
